Test results reported in patent publication US20090281049A1, “New use of ginsenoside compound-k in manufacturing medicaments” (priority 2006, published 2009).

Key:
[1] = system: Adjuvant Arthritis in rats; experiment: Treatment effect on adjuvant induced adjuvant arthritis in rats; format: in vivo, Rat, SD strain
Experimental: (§1) Freund's Adjuvant Complete, purchased from Sigma Company, was injected into the plantar surface of the right hind paw by 0.1 ml in order to induce inflammation in rats.
(§2) Animals were firstly divided into large dose group: 10 mg/kg, iv, medium dose group: 5 mg/kg, iv, small dose group: 2.5 mg/kg, iv, Indomethacin group: 1 mg/kg, po, Tripterygium Wilfordii Hook group: 1.5 mg/kg, po. and blank control group: physiological saline 10 mg/kg, iv. The volume of the right hind paw of the rats was measured by using hydroplethismometer before inflammation induced. Then 0.1 ml Freund's Adjuvant Complete was injected into the plantar surface of the right hind paw in order to induce inflammation in rats. 20 days after inflammation induced, the rats were grouped by the foregoing division method and to be administered for 8 days. The volume of paw was measured in regular intervals. Swell rate and inhibition rate were calculated with the same method as the foregoing. Differences among groups were compared with t test.

[2] = system: Adjuvant Arthritis in rats; experiment: Preventive effect on adjuvant induced adjuvant arthritis in rats; format: in vivo, Rat, SD strain
Experimental: as §1
as §2, with “mg/kg, po” for “mg/kg, po.”, “rats. The” for “rats. 20 days after inflammation induced, the”, “division way in the succeeding day,” for “division method”, “for 15” for “for 8”, “calculated by” for “calculated with”, “compared by” for “compared with”

For CC(C)=CCC[C@](C)(O[C@@H]1O[C@H](CO)[C@@H](O)[C@H](O)[C@H]1O)[C@H]1CC[C@]2(C)[C@@H]1[C@H](O)C[C@@H]1[C@@]3(C)CC[C@H](O)C(C)(C)[C@@H]3CC[C@]12C [Ginsenoside Compound-K, ginsenoside Compound-K], the swell value ([1]; 2.5 mg/kg iv, 0 day) was 1.06 ± 0.09 mL, the inhibition rate ([1]; 2.5 mg/kg iv, 19 day) was <14.36> % and the swell rate ([1]; 2.5 mg/kg iv, 19 day) was “(84.26 ± 14.31) %”. For the same compound, the swell value ([1]; 2.5 mg/kg iv, 19 day) was 1.96 ± 0.16 mL, the inhibition rate ([1]; 2.5 mg/kg iv, 21 day) was <15.81> % and the swell rate ([1]; 2.5 mg/kg iv, 21 day) was “(89.42 ± 18.47) %”. For the same compound, the swell value ([1]; 2.5 mg/kg iv, 21 day) was 2.00 ± 0.07 mL, the inhibition rate ([1]; 2.5 mg/kg iv, 23 day) was <24.02> % and the swell rate ([1]; 2.5 mg/kg iv, 23 day) was “(80.92 ± 16.84) %”. For the same compound, the swell value ([1]; 2.5 mg/kg iv, 23 day) was 1.91 ± 0.08 mL, the inhibition rate ([1]; 2.5 mg/kg iv, 26 day) was <27.71> % and the swell rate ([1]; 2.5 mg/kg iv, 26 day) was “(81.13 ± 10.03) %”. The swell value ([1]; 2.5 mg/kg iv, 26 day) was 1.92 ± 0.08 mL, the inhibition rate ([1]; 2.5 mg/kg iv, 30 day) was <19.36> % and the swell rate ([1]; 2.5 mg/kg iv, 30 day) was “(84.80 ± 19.66) %”. For the same compound, the swell value ([1]; 2.5 mg/kg iv, 30 day) was 1.96 ± 0.16 mL, the swell value ([1]; 5 mg/kg iv, 0 day) was 1.10 ± 0.09 mL and the inhibition rate ([1]; 5 mg/kg iv, 19 day) was <17.31> %. The swell rate ([1]; 5 mg/kg iv, 19 day) was “(81.36 ± 13.10) %”, the swell value ([1]; 5 mg/kg iv, 19 day) was 2.00 ± 0.12 mL and the inhibition rate ([1]; 5 mg/kg iv, 21 day) was <20.85> %. The swell rate ([1]; 5 mg/kg iv, 21 day) was “(84.07 ± 18.91) %”, the swell value ([1]; 5 mg/kg iv, 21 day) was 2.03 ± 0.20 mL and the inhibition rate ([1]; 5 mg/kg iv, 23 day) was <23.19> %. For the same compound, the swell rate ([1]; 5 mg/kg iv, 23 day) was “(81.81 ± 14.58) %”, the swell value ([1]; 5 mg/kg iv, 23 day) was 2.01 ± 0.23 mL and the inhibition rate ([1]; 5 mg/kg iv, 26 day) was <27.40> %. For the same compound, the swell rate ([1]; 5 mg/kg iv, 26 day) was “(81.48 ± 11.30) %”, the swell value ([1]; 5 mg/kg iv, 26 day) was 2.00 ± 0.19 mL and the inhibition rate ([1]; 5 mg/kg iv, 30 day) was <20.33> %. The swell rate ([1]; 5 mg/kg iv, 30 day) was “(83.77 ± 17.65) %”, the swell value ([1]; 5 mg/kg iv, 30 day) was 2.03 ± 0.25 mL and the swell value ([1]; 10 mg/kg iv, 0 day) was 1.05 ± 0.09 mL. The inhibition rate ([1]; 10 mg/kg iv, 19 day) was <9.69> %, the swell rate ([1]; 10 mg/kg iv, 19 day) was “(88.85 ± 23.27) %” and the swell value ([1]; 10 mg/kg iv, 19 day) was 1.97 ± 0.24 mL. For the same compound, the inhibition rate ([1]; 10 mg/kg iv, 21 day) was <31.57> %, the swell rate ([1]; 10 mg/kg iv, 21 day) was “(72.69 ± 29.97) %” and the swell value ([1]; 10 mg/kg iv, 21 day) was 1.81 ± 0.33 mL. The inhibition rate ([1]; 10 mg/kg iv, 23 day) was <31.92> %, the swell rate ([1]; 10 mg/kg iv, 23 day) was “(72.50 ± 22.18) %” and the swell value ([1]; 10 mg/kg iv, 23 day) was 1.80 ± 0.21 mL. For the same compound, the inhibition rate ([1]; 10 mg/kg iv, 26 day) was <36.15> %, the swell rate ([1]; 10 mg/kg iv, 26 day) was “(71.66 ± 24.46) %” and the swell value ([1]; 10 mg/kg iv, 26 day) was 1.79 ± 0.24 mL. The inhibition rate ([1]; 10 mg/kg iv, 30 day) was <32.32> %, the swell rate ([1]; 10 mg/kg iv, 30 day) was “(71.17 ± 17.97) %” and the swell value ([1]; 10 mg/kg iv, 30 day) was 1.80 ± 0.26 mL. For the same compound, the “overall treatment effect on Adjuvant Arthritis” value ([1]; rats, 10, 5, 2.5 mg/kg iv for 8 days from day 20) was “able to cure Adjuvant Arthritis in rats”, the swell value ([2]; 2.5 mg/kg iv, 0 day) was 1.24 ± 0.08 mL and the inhibition rate ([2]; 2.5 mg/kg iv, 2 day) was <21.71> %. For the same compound, the swell rate ([2]; 2.5 mg/kg iv, 2 day) was “(56.65 ± 17.83) %”, the swell value ([2]; 2.5 mg/kg iv, 2 day) was 2.14 ± 0.15 mL and the inhibition rate ([2]; 2.5 mg/kg iv, 4 day) was <18.33> %. The swell rate ([2]; 2.5 mg/kg iv, 4 day) was “(73.11 ± 15.82) %”, the swell value ([2]; 2.5 mg/kg iv, 4 day) was 2.14 ± 0.15 mL and the inhibition rate ([2]; 2.5 mg/kg iv, 6 day) was <20.67> %. For the same compound, the swell rate ([2]; 2.5 mg/kg iv, 6 day) was “(70.87 ± 14.91) %”, the swell value ([2]; 2.5 mg/kg iv, 6 day) was 2.11 ± 0.10 mL and the inhibition rate ([2]; 2.5 mg/kg iv, 9 day) was <20.95> %. The swell rate ([2]; 2.5 mg/kg iv, 9 day) was “(57.25 ± 14.42) %”, the swell value ([2]; 2.5 mg/kg iv, 9 day) was 1.95 ± 0.17 mL and the inhibition rate ([2]; 2.5 mg/kg iv, 11 day) was <20.82> %. The swell rate ([2]; 2.5 mg/kg iv, 11 day) was “(61.69 ± 21.61) %”, the swell value ([2]; 2.5 mg/kg iv, 11 day) was 2.00 ± 0.26 mL and the inhibition rate ([2]; 2.5 mg/kg iv, 13 day) was <25.97> %. For the same compound, the swell rate ([2]; 2.5 mg/kg iv, 13 day) was “(61.24 ± 13.26) %”, the swell value ([2]; 2.5 mg/kg iv, 13 day) was 2.00 ± 0.15 mL and the inhibition rate ([2]; 2.5 mg/kg iv, 15 day) was <28.05> %. The swell rate ([2]; 2.5 mg/kg iv, 15 day) was “(58.02 ± 15.92) %”, the swell value ([2]; 2.5 mg/kg iv, 15 day) was 1.96 ± 0.20 mL and the swell value ([2]; 5 mg/kg iv, 0 day) was 1.25 ± 0.06 mL. The inhibition rate ([2]; 5 mg/kg iv, 2 day) was <35.56> %, the swell rate ([2]; 5 mg/kg iv, 2 day) was “(46.63 ± 11.66) %” and the swell value ([2]; 5 mg/kg iv, 2 day) was 2.10 ± 0.21 mL. The inhibition rate ([2]; 5 mg/kg iv, 4 day) was <23.65> %, the swell rate ([2]; 5 mg/kg iv, 4 day) was “(68.35 ± 15.68) %” and the swell value ([2]; 5 mg/kg iv, 4 day) was 2.10 ± 0.21 mL. For the same compound, the inhibition rate ([2]; 5 mg/kg iv, 6 day) was <17.94> %, the swell rate ([2]; 5 mg/kg iv, 6 day) was “(73.31 ± 17.73) %” and the swell value ([2]; 5 mg/kg iv, 6 day) was 2.16 ± 0.18 mL. For the same compound, the inhibition rate ([2]; 5 mg/kg iv, 9 day) was <20.45> %, the swell rate ([2]; 5 mg/kg iv, 9 day) was “(57.60 ± 13.83) %” and the swell value ([2]; 5 mg/kg iv, 9 day) was 1.97 ± 0.21 mL. The inhibition rate ([2]; 5 mg/kg iv, 11 day) was <28.37> %, the swell rate ([2]; 5 mg/kg iv, 11 day) was “(55.81 ± 11.54) %” and the swell value ([2]; 5 mg/kg iv, 11 day) was 1.95 ± 0.18 mL. The inhibition rate ([2]; 5 mg/kg iv, 13 day) was <27.79> %, the swell rate ([2]; 5 mg/kg iv, 13 day) was “(59.74 ± 11.82) %” and the swell value ([2]; 5 mg/kg iv, 13 day) was 2.00 ± 0.18 mL. The inhibition rate ([2]; 5 mg/kg iv, 15 day) was <29.21> %, the swell rate ([2]; 5 mg/kg iv, 15 day) was “(57.08 ± 14.00) %” and the swell value ([2]; 5 mg/kg iv, 15 day) was 1.96 ± 0.21 mL. For the same compound, the swell value ([2]; 10 mg/kg iv, 0 day) was 1.29 ± 0.08 mL, the inhibition rate ([2]; 10 mg/kg iv, 2 day) was <29.48> % and the swell rate ([2]; 10 mg/kg iv, 2 day) was “(51.03 ± 8.03) %”. For the same compound, the swell value ([2]; 10 mg/kg iv, 2 day) was 2.17 ± 0.14 mL, the inhibition rate ([2]; 10 mg/kg iv, 4 day) was <22.99> % and the swell rate ([2]; 10 mg/kg iv, 4 day) was “(68.94 ± 10.49) %”. For the same compound, the swell value ([2]; 10 mg/kg iv, 4 day) was 2.17 ± 0.14 mL, the inhibition rate ([2]; 10 mg/kg iv, 6 day) was <19.52> % and the swell rate ([2]; 10 mg/kg iv, 6 day) was “(71.90 ± 9.64%”. The swell value ([2]; 10 mg/kg iv, 6 day) was 2.21 ± 0.15 mL, the inhibition rate ([2]; 10 mg/kg iv, 9 day) was <19.59> % and the swell rate ([2]; 10 mg/kg iv, 9 day) was “(58.23 ± 11.44) %”. For the same compound, the swell value ([2]; 10 mg/kg iv, 9 day) was 2.03 ± 0.15 mL, the inhibition rate ([2]; 10 mg/kg iv, 11 day) was <30.08> % and the swell rate ([2]; 10 mg/kg iv, 11 day) was “(54.48 ± 12.39) %”. The swell value ([2]; 10 mg/kg iv, 11 day) was 1.98 ± 0.14 mL, the inhibition rate ([2]; 10 mg/kg iv, 13 day) was <29.83> % and the swell rate ([2]; 10 mg/kg iv, 13 day) was “(58.04 ± 10.97) %”. For the same compound, the swell value ([2]; 10 mg/kg iv, 13 day) was 2.03 ± 0.13 mL, the inhibition rate ([2]; 10 mg/kg iv, 15 day) was <31.26> % and the swell rate ([2]; 10 mg/kg iv, 15 day) was “(55.42 ± 14.65) %”. The swell value ([2]; 10 mg/kg iv, 15 day) was 1.99 ± 0.18 mL and the “overall preventive effect on Adjuvant Arthritis” value ([2]; rats, 10, 5, 2.5 mg/kg iv for 15 days) was “able to prevent Adjuvant Arthritis in rats”.
